Assays:
HIV-integrase = target: T1, HIV-integrase (Human immunodeficiency virus type 1 group M subtype B, UniProt P04585); assay: HIV-integrase inhibition activity (SPA bead strand-transfer assay); format: biochemical; settings: 50 μM compound; recombinant integrase
T1 construct: 0.26 ng of recombinant integrase was incubated with the beads
Protocol: For each reaction, 5 pmole of biotin labled substrate DNA was bound to 100 ug of Streptavidin coated PVT SPA beads (Amersham Pharmacia Biotech). 0.26 ng of recombinant integrase was incubated with the beads for 90 min at 37° C. Unbound enzyme was removed by washing the complex followed by addition of inhibitors and 0.1 fmol of P33 labeled target DNA. Reaction was stopped by adding EDTA to a final concentration of 10 mM. Samples were counted in TopCountNXT (Packard) and the CPM was used as a measure of integration. Reaction condition was as described in A. Engelman and R. Craigie, J. Virol. 69, 5908-5911 (1995). The sequences of substrate and target DNA were described in Nucleic Acid Research 22, 1121-1122 (1994). Compounds of this invention tested in this assay have IC50's of approximately 0.01 to 50 μM

[1] = system: single cycle, recombinant HIV virus expressing Renella luciferase; assay: Inhibition of HIV replication (single cycle recombinant virus, luciferase readout); format: cell-based; settings: Human immunodeficiency virus 1, 120 h, read-out: % Inhibition @ 1.6 uM
Protocol: Cell culture assays were preformed using a single cycle, recombinant HIV virus expressing Renella luciferase. Anti-viral activity was evaluated by measuring the production of luciferase in the infected cells 5 days post-infection. Susceptibility of the virus to compounds was determined by incubation in the presence of the serially-diluted compound. The 50% effective concentration (EC50) was calculated by using the exponential form of the median effect equation where (Fa)=1/[1+(ED50/drug conc.)^m]. Compounds of this invention tested in this assay have EC50's of approximately 0.02 to 50 μM.

`CON(Cc1ccccc1)C(=O)/C=C(\O)C(=O)O` [Compound 1, 3-(Benzyl-methoxy-carbamoyl)-2-hydroxy-acrylic acid] gave an inhibition at 50 µM (HIV-integrase) of 99%.

With `O=C(O)/C(O)=C/C(=O)N(Cc1ccccc1)OCc1ccccc1` [Compound 2, 3-(Benzyl-benzyloxy-carbamoyl)-2-hydroxy-acrylic acid] the inhibition at 50 µM (HIV-integrase) was 99.9%.

`CON(Cc1ccc(Cl)c(Cl)c1)C(=O)/C=C(\O)C(=O)O` [Compound 4, 3-[(3,4-Dichloro-benzyl)-methoxy-carbamoyl]-2-hydroxy-acrylic acid] gave an inhibition at 50 µM (HIV-integrase) of 99.9% and an inhibition at 1.6 µM [1] of 90%.

With `CON(Cc1ccc(Cl)c(Cl)c1)C(=O)/C=C1\OC(C)(C)OC1=O` [Compound 4-B, N-(3,4-Dichloro-benzyl)-2-(2,2-dimethyl-5-oxo-[1,3]dioxolan-4-ylidene)-N-methoxy-acetamide] the inhibition at 1.6 µM [1] was 87% and the melting point was 119 to 120 °C.

Compound `CON(Cc1ccc(F)c(Cl)c1)C(=O)/C=C(\O)C(=O)O` [Compound 5, 3-[(3-Chloro-4-fluoro-benzyl)-methoxy-carbamoyl]-2-hydroxy-acrylic acid] has an inhibition at 50 µM (HIV-integrase) of 99.9% and an inhibition at 1.6 µM [1] of 96%.

`CON(Cc1ccc(F)c(Cl)c1)C(=O)/C=C1\OC(C)(C)OC1=O` [Compound 5-B, N-(3-Chloro-4-fluoro-benzyl)-2-(2,2-dimethyl-5-oxo-[1,3]dioxolan-4-ylidene)-N-methoxy-acetamide] showed an inhibition at 1.6 µM [1] of 94% and a melting point of 110 to 111 °C.

`O=C(O)/C(O)=C/C(=O)N(Cc1ccc(Cl)c(Cl)c1)OCc1ccccc1` [Compound 6, 3-[Benzyloxy-(3,4-dichloro-benzyl)-carbamoyl]-2-hydroxy-acrylic acid] showed an inhibition at 50 µM (HIV-integrase) of 99.9%.

`CON(Cc1cccc(F)c1)C(=O)/C=C(\O)C(=O)O` [Compound 7, 3[(3-Fluoro-benzyl)-methoxy-carbamoyl]-2-hydroxy-acrylic acid] gave an inhibition at 50 µM (HIV-integrase) of 99.9%.

With `CON(Cc1ccccc1F)C(=O)/C=C(\O)C(=O)O` [Compound 8, 3-[(2-Fluoro-benzyl)-methoxy-carbamoyl]-2-hydroxy-acrylic acid] the inhibition at 50 µM (HIV-integrase) was 99.9%.

For `CON(CCc1ccc(F)cc1)C(=O)/C=C(\O)C(=O)O` [Compound 9, 3-{[2-(4-Fluoro-phenyl)-ethyl]-methoxy-carbamoyl}-2-hydroxy-acrylic acid], the inhibition at 50 µM (HIV-integrase) was 99.9% and the melting point was 107 to 108 °C (dec.).

`CON(Cc1ccc(Cl)cc1)C(=O)/C=C(\O)C(=O)O` [Compound 10, 3-[(4-Chloro-benzyl)-methoxy-carbamoyl]-2-hydroxy-acrylic acid] showed an inhibition at 50 µM (HIV-integrase) of 99.9%.

In the case of `CON(Cc1ccc(F)c(F)c1)C(=O)/C=C(\O)C(=O)O` [Compound 11, 3-[(3,4-Difluoro-benzyl)-methoxy-carbamoyl]-2-hydroxy-acrylic acid], the inhibition at 50 µM (HIV-integrase) is reported as 99.9% and the melting point is reported as 127 to 129 °C.

With `CCON(Cc1ccc(F)cc1)C(=O)/C=C(\O)C(=O)O` [Compound 12, 3-[Ethoxy-(4-fluoro-benzyl)-carbamoyl]-2-hydroxy-acrylic acid] the inhibition at 50 µM (HIV-integrase) was 99.9% and the melting point was 120 to 121 °C (dec.).

With `CC(C)CON(Cc1ccc(F)cc1)C(=O)/C=C(\O)C(=O)O` [Compound 13, 3-[(4-Fluoro-benzyl)-isobutoxy-carbamoyl]-2-hydroxy-acrylic acid] the inhibition at 50 µM (HIV-integrase) was 99.9% and the melting point was 100 to 101 °C.

`CON(Cc1ccc(F)c(Br)c1)C(=O)/C=C(\O)C(=O)O` [Compound 14, 3-[(3-Bromo-4-fluoro-benzyl)-methoxy-carbamoyl]-2-hydroxy-acrylic acid] showed an inhibition at 50 µM (HIV-integrase) of 99.9% and a melting point of 140 to 141 °C.

In the case of `CON(Cc1ccccc1C)C(=O)/C=C(\O)C(=O)O` [Compound 15, 2-Hydroxy-3-[methoxy-(2-methyl-benzyl)-carbamoyl]-acrylic acid], the inhibition at 50 µM (HIV-integrase) is reported as 99%, the inhibition at 1.6 µM [1] is reported as 33% and the melting point is reported as 85 to 87 °C (dec.).

`COc1ccc(CN(OC)C(=O)/C=C(\O)C(=O)O)cc1` [Compound 16, 2-Hydroxy-3-[methoxy-(4-methoxy-benzyl)-carbamoyl]-acrylic acid] gave an inhibition at 50 µM (HIV-integrase) of 99% and a melting point of 83 to 86 °C.

With `CON(Cc1ccc(F)cc1F)C(=O)/C=C(\O)C(=O)O` [Compound 17, 3-[(2,4-Difluoro-benzyl)-methoxy-carbamoyl]-2-hydroxy-acrylic acid] the inhibition at 50 µM (HIV-integrase) was 99.9% and the melting point was 131 to 132 °C.

`COC(=O)c1ccc(CN(OC)C(=O)C=C(O)C(=O)O)cc1` [Compound 18, 4-{[(3-Carboxy-3-hydroxy-acryloyl)-methoxy-amino]-methyl}-benzoic acid methyl ester] gave an inhibition at 50 µM (HIV-integrase) of 96% and a melting point of 110 to 111 °C.

With `CON(Cc1ccc(F)c(C#N)c1)C(=O)/C=C(\O)C(=O)O` [Compound 19, 3-[(3-Cyano-4-fluoro-benzyl)-methoxy-carbamoyl]-2-hydroxy-acrylic acid] the inhibition at 50 µM (HIV-integrase) was 99.9% and the melting point was 144 to 151 °C (dec.).

With `CC(C)(C)OC(=O)CON(Cc1ccc(F)cc1)C(=O)/C=C(\O)C(=O)O` [Compound 20, 3-[tert-Butoxycarbonylmethoxy-(4-fluoro-benzyl)-carbamoyl]-2-hydroxy-acrylic acid] the inhibition at 50 µM (HIV-integrase) was 99.9% and the melting point was 73 °C (dec.).

In the case of `CON(Cc1ccc(C#N)cc1)C(=O)/C=C(\O)C(=O)O` [Compound 21, 3-[(4-Cyano-benzyl)-methoxy-carbamoyl]-2-hydroxy-acrylic acid], the inhibition at 50 µM (HIV-integrase) is reported as 99.9% and the melting point is reported as 135 to 137 °C (dec.).

`CN(C)C(=O)CON(Cc1ccc(F)cc1)C(=O)/C=C(\O)C(=O)O` [Compound 22, 3-[Dimethylcarbamoylmethoxy-(4-fluoro-benzyl)-carbamoyl]-2-hydroxy-acrylic acid] showed an inhibition at 50 µM (HIV-integrase) of 99.9% and a melting point of 118 to 120 °C.

With `CON(Cc1ccc(NC(C)=O)cc1)C(=O)/C=C(\O)C(=O)O` [Compound 23, 3-[(4-Acetylamino-benzyl)-methoxy-carbamoyl]-2-hydroxy-acrylic acid] the inhibition at 50 µM (HIV-integrase) was 65% and the melting point was 155 °C (dec.).

Compound `O=C(O)CON(Cc1ccc(F)cc1)C(=O)/C=C(\O)C(=O)O` [Compound 24, 3-[Carboxymethoxy-(4-fluoro-benzyl)-carbamoyl]-2-hydroxy-acrylic acid] has an inhibition at 50 µM (HIV-integrase) of 99.9% and a melting point of 135 to 138 °C.

`CON(Cc1ccccc1OC(C)C)C(=O)/C=C(\O)C(=O)O` [Compound 31, 2-Hydroxy-3-[(2-isopropoxy-benzyl)-methoxy-carbamoyl]-acrylic acid] showed an inhibition at 1.6 µM [1] of 47%.

For `O=C(O)/C(O)=C/C(=O)N(Cc1ccc(F)cc1)OCC(=O)N1CCOCC1` [Compound 62], the inhibition at 50 µM (HIV-integrase) was greater than 99%.

`CN(CCCN1c2ccccc2CCc2ccccc21)C(=O)CON(Cc1ccc(F)cc1)C(=O)/C=C(\O)C(=O)O` [Compound 63] gave an inhibition at 50 µM (HIV-integrase) greater than 99%.

Compound `CC(NC(=O)CON(Cc1ccc(F)cc1)C(=O)/C=C(\O)C(=O)O)c1ccccc1` (stereo not shown) [Compound 64] has an inhibition at 50 µM (HIV-integrase) greater than 99%.

`O=C(CON(Cc1ccc(F)cc1)C(=O)/C=C(\O)C(=O)O)NCc1ccc(F)cc1` [Compound 65] showed an inhibition at 50 µM (HIV-integrase) greater than 99%.

Compound `O=C(CON(Cc1ccc(F)cc1)C(=O)/C=C(\O)C(=O)O)NCc1ccc(Cl)cc1` [Compound 66] has an inhibition at 50 µM (HIV-integrase) greater than 99%.

`COc1ccc(CNC(=O)CON(Cc2ccc(F)cc2)C(=O)/C=C(\O)C(=O)O)cc1` [Compound 67] showed an inhibition at 50 µM (HIV-integrase) greater than 99%.

`Cc1ccc(CNC(=O)CON(Cc2ccc(F)cc2)C(=O)/C=C(\O)C(=O)O)cc1` [Compound 68] gave an inhibition at 50 µM (HIV-integrase) greater than 99%.

Work on `O=C(CON(Cc1ccc(F)cc1)C(=O)/C=C(\O)C(=O)O)NCc1ccc(C(F)(F)F)cc1` [Compound 69] yielded an inhibition at 50 µM (HIV-integrase) greater than 99%.

In the case of `CC(NC(=O)CON(Cc1ccc(F)cc1)C(=O)/C=C(\O)C(=O)O)c1ccc(F)cc1` (stereo not shown) [Compound 70], the inhibition at 50 µM (HIV-integrase) is reported as greater than 99%.

For `CN(CCCC(c1ccc(Cl)cc1)c1ccc(Cl)cc1)C(=O)CON(Cc1ccc(F)cc1)C(=O)/C=C(\O)C(=O)O` [Compound 71], the inhibition at 50 µM (HIV-integrase) was greater than 99%.

Work on `CCCCN(Cc1ccccc1)C(=O)CON(Cc1ccc(F)cc1)C(=O)/C=C(\O)C(=O)O` [Compound 72] yielded an inhibition at 50 µM (HIV-integrase) greater than 99%.

For `CCCN(CC1CC1)C(=O)CON(Cc1ccc(F)cc1)C(=O)/C=C(\O)C(=O)O` [Compound 73], the inhibition at 50 µM (HIV-integrase) was greater than 99%.

Work on `CC(C)CN(CC(C)C)C(=O)CON(Cc1ccc(F)cc1)C(=O)/C=C(\O)C(=O)O` [Compound 74] yielded an inhibition at 50 µM (HIV-integrase) greater than 99%.

`CCCCCCN(CCCCCC)C(=O)CON(Cc1ccc(F)cc1)C(=O)/C=C(\O)C(=O)O` [Compound 75] gave an inhibition at 50 µM (HIV-integrase) greater than 99%.

In the case of `O=C(O)/C(O)=C/C(=O)N(Cc1ccc(F)cc1)OCC(=O)N(C1CCCCC1)C1CCCCC1` [Compound 76], the inhibition at 50 µM (HIV-integrase) is reported as greater than 99%.

In the case of `CC(=O)N1CCCN(C(=O)CON(Cc2ccc(F)cc2)C(=O)/C=C(\O)C(=O)O)CC1` [Compound 77], the inhibition at 50 µM (HIV-integrase) is reported as greater than 99%.

With `CCNC(=O)CON(Cc1ccc(F)cc1)C(=O)/C=C(\O)C(=O)O` [Compound 78] the inhibition at 50 µM (HIV-integrase) was greater than 99%.

`CC(C)CNC(=O)CON(Cc1ccc(F)cc1)C(=O)/C=C(\O)C(=O)O` [Compound 79] showed an inhibition at 50 µM (HIV-integrase) greater than 99%.
